From patent publication US8198469B2, “Crystalline forms of tigecycline and processes for preparation thereof” (Teva Pharmaceutical Industries Ltd., priority 2006, dated 2012)

Assays:
Format in all cases: physicochemical
[1] = Polymorphic transition due to heating in oven, solid analyzed by XRD
Experimental: (§1) X-Ray powder diffraction data were obtained by using methods known in the art, using a SCINTAG powder X-Ray diffractometer model X'TRA equipped with a solid-state detector. A Copper radiation of 1.5418 Å was used. A round aluminum sample holder with zero background was used. The scanning parameters included: range: 20 to 40° 2θ; scan mode: continuous scan; step size: 0.05°. The rate for Form XX [FIG. 16] was 3°/min using spin mode while the remaining crystalline forms were 5°/min using spin mode. All peak positions are within ±0.2 degrees two theta.
Tigecycline Form X was placed in oven at a temperature of between about 50-150° C. for about 0.5-2 hr (for example: 60 for 2 hr, 140° C. for 1 hr).
Tigecycline Form XI was placed in oven at a temperature of between about 50-80° C. for about 1-2 hr (for example: 60 for 2 hr).
Tigecycline Form XVII was placed in oven at a temperature of between about 50-70° C. for about 1-2 hr (for example: 60 for 2 hr).
Tigecycline Form XVII was placed in oven at a temperature of between about 90-110° C. for about 0.5-1 hr (for example: 100 for 0.5 hr).
Tigecycline Form XVIII was placed in oven at a temperature of between about 120-150° C. for about 0.5-1 hr (for example: 140 for 1 hr).
Tigecycline Form XXIV was placed in oven at a temperature of between about 110-140° C. for about 0.5-1 hr (for example: 120 for 0.5 hr, 140° C. for 1 hr).

[2] = Exposure to 0% or 100% relative humidity for 7 days at room temperature, crystal form monitored by XRD
Experimental: as §1, with “theta. […]” for “theta.”
Form I prepared from ethyl acetate (about 80 mg) as described in U.S. Application Ser. No. 60/796,800 was exposed to either 0% or 100% relative humidity for 7 days at room temperature. After the exposure the crystal form was monitored by XRD. […]

[3] = Vacuum drying of the solid, form re-analyzed by XRD; conditions: for Solid form after vacuum drying: dried under vacuum, temperature and time not stated; for Solid form by XRD after drying: overnight at 40° C. under vacuum
Experimental: as §1
Tigecycline sample was dissolved in 20 volumes of hot iso-propanol. The solution thus obtained was allowed to cool at ambient temperature and then further cooled at 0-5° C. for about half an hour. The resulted suspension was filtered and the solid air-dried on the filter to afford Tigecycline of Form XII. The material was further dried overnight at 40° C. under vacuum without affecting the polymorphs, i.e. the vacuum dried Tigecycline was still identified as Form XII. The sizes of the Tigecycline Form XII crystals were less than 300 μm.
Tigecycline sample was dissolved in 20 volumes of n-propanol or 40 volumes of hot ethanol. The solution thus obtained was allowed to cool at ambient temperature and then further cooled at 0-5° C. for about half an hour. The resulted suspension was filtered and the solid air-dried on the filter to afford Tigecycline Form XIII. The material was further dried overnight under vacuum at 40° C. without affecting the polymorphs, i.e. the vacuum dried Tigecycline was still identified as Form XIII. The sizes of the Tigecycline Form XIII crystals were less than 300 μm.
2 grams of Tigecycline was dissolved in 440 mL of DDW and pH of the mixture was adjusted at 7.38 and 60 mL of THF were then added. The resulted solution was extracted 6 times with 60 mL portions of dichloromethane while pH is carefully controlled at 7.2-7.4. The combined organic extract was then dried over sodium sulfate and concentrated to about 10 mL to afford a suspension of Tigecycline. The solid was filtered and washed with heptane. Analysis of the material indicated Form XVII Tigecycline.
2 grams of Tigecycline was dissolved in 440 mL of DDW and pH of the mixture was adjusted at 7.33 and 60 mL of THF were then added. The resulted solution was extracted 6 times with 60 mL portions of dichloromethane while the pH is carefully controlled at 7.2-7.4. The combined organic extract was then dried over sodium sulfate, filtered and the solid was washed with 50 mL of dichloromethane into the initial filtrate. The combined filtrate was concentrated to 30-40 mL and the concentrated was stirred for about half an hour at 0-5° C. A precipitation occurred upon the cooling and the solid was collected and vacuum dried. Analysis of the material before and after the drying indicated Form XVIII of Tigecycline in both cases.
A solution of Tigecycline in dichloromethane was provided between 5 and 10 g/L, and dried over sodium sulfate. Toluene was added to the solution so that the total volume increased to about 1.15 of the original volume. The resulted solution was then partially evaporated so that the volume of the residual mixture was similar to that of the toluene added. The resulted suspension was filtered and the solid thus obtained was dried under vacuum. Analysis of the material before and after the drying indicated Form XIX of Tigecycline in both cases.
A solution of Tigecycline in dichloromethane was provided and dried over sodium sulfate. Di-n-butyl ether was added to the solution so that the total volume increased to about 1.15 of the original volume. The resulting solution was then partially evaporated so that the volume of the residual mixture was similar to that of the di-n-butyl ether added. The resulted suspension was filtered and the cake washed with di-n-butyl ether. Tigecycline thus obtained was identified as Form VIII in both wet and vacuum dried samples. […]

[4] = Pressing by a laboratory press, solid analyzed by XRD; conditions: pressure of about 1-2 tons for about 1-3 min (e.g. 2 tons for 1 min)
Experimental: as §1
Tigecycline Form XI was pressed by a laboratory press by pressure of about 1-2 tons for about 1-3 min (for example: 2 tons for 1 min).
Tigecycline Form XVII was pressed by a laboratory press by pressure of about 1-2 tons for about 1-3 min (for example: 2 tons for 1 min).

[5] = Strong grinding by mortar and pestle, solid analyzed by XRD; conditions: about 0.5-1 min
Experimental: as §1
Tigecycline Form XVII was strongly ground by mortal and pestle for about 0.5-1 min.

[6] = 120-150° C. for about 0.5-1 hr (e.g. 140° C. for 1 hr)

CN(C)c1cc(NC(=O)CNC(C)(C)C)c(O)c2c1C[C@H]1C[C@H]3[C@H](N(C)C)C(O)=C(C(N)=O)C(=O)[C@@]3(O)C(O)=C1C2=O [Form I, Tigecycline]
Solid form by XRD after heating in oven [1, 6]: amorphous form | Crystal form by XRD after exposure to relative humidity ([2]; 0% RH): New form XXV | Crystal form by XRD after exposure to relative humidity ([2]; 100% RH): Amorphous

CN(C)c1cc(NC(=O)CNC(C)(C)C)c(O)c2c1C[C@H]1C[C@H]3[C@H](N(C)C)C(O)=C(C(N)=O)C(=O)[C@@]3(O)C(O)=C1C2=O [Form IX, Tigecycline]
Crystal form by XRD after exposure to relative humidity ([2]; 100% RH): Form XXII

CN(C)c1cc(NC(=O)CNC(C)(C)C)c(O)c2c1C[C@H]1C[C@H]3[C@H](N(C)C)C(O)=C(C(N)=O)C(=O)[C@@]3(O)C(O)=C1C2=O [Form VII, Tigecycline]
Crystal form by XRD after exposure to relative humidity ([2]; 0% RH): Form XXIII

CN(C)c1cc(NC(=O)CNC(C)(C)C)c(O)c2c1C[C@H]1C[C@H]3[C@H](N(C)C)C(O)=C(C(N)=O)C(=O)[C@@]3(O)C(O)=C1C2=O [Form VIII, Tigecycline]
Solid form after vacuum drying [3]: Form VIII

CN(C)c1cc(NC(=O)CNC(C)(C)C)c(O)c2c1C[C@H]1C[C@H]3[C@H](N(C)C)C(O)=C(C(N)=O)C(=O)[C@@]3(O)C(O)=C1C2=O [Form X, Tigecycline]
Solid form by XRD after heating in oven ([1]; 50-150° C. for about 0.5-2 hr (e.g. 60 for 2 hr, 140° C. for 1 hr)): amorphous form

CN(C)c1cc(NC(=O)CNC(C)(C)C)c(O)c2c1C[C@H]1C[C@H]3[C@H](N(C)C)C(O)=C(C(N)=O)C(=O)[C@@]3(O)C(O)=C1C2=O [Form XI, Tigecycline]
Solid form by XRD after pressing [4]: mixture of Form XI and Form VI | Solid form by XRD after heating in oven ([1]; 50-80° C. for about 1-2 hr (e.g. 60 for 2 hr)): mixture of Form XI and Form VI | Crystal form by XRD after exposure to relative humidity ([2]; 0% RH): mixture of Form XI and Form VI

CN(C)c1cc(NC(=O)CNC(C)(C)C)c(O)c2c1C[C@H]1C[C@H]3[C@H](N(C)C)C(O)=C(C(N)=O)C(=O)[C@@]3(O)C(O)=C1C2=O [Form XII, Tigecycline]
Solid form by XRD after drying [3]: Form XII

CN(C)c1cc(NC(=O)CNC(C)(C)C)c(O)c2c1C[C@H]1C[C@H]3[C@H](N(C)C)C(O)=C(C(N)=O)C(=O)[C@@]3(O)C(O)=C1C2=O [Form XIII, Tigecycline]
Solid form by XRD after drying [3]: Form XIII

CN(C)c1cc(NC(=O)CNC(C)(C)C)c(O)c2c1C[C@H]1C[C@H]3[C@H](N(C)C)C(O)=C(C(N)=O)C(=O)[C@@]3(O)C(O)=C1C2=O [Form XIX, Tigecycline]
Solid form after vacuum drying [3]: Form XIX

CN(C)c1cc(NC(=O)CNC(C)(C)C)c(O)c2c1C[C@H]1C[C@H]3[C@H](N(C)C)C(O)=C(C(N)=O)C(=O)[C@@]3(O)C(O)=C1C2=O [Form XVII, Tigecycline]
Solid form by XRD after pressing [4]: mixture of Form XVII and Form VI | Solid form by XRD after strong grinding [5]: mixture of Form XVII and Form VI | Solid form by XRD after heating in oven ([1]; 50-70° C. for about 1-2 hr (e.g. 60 for 2 hr)): mixture of Form XVII and Form VI | Solid form by XRD after heating in oven ([1]; 90-110° C. for about 0.5-1 hr (e.g. 100 for 0.5 hr)): Form VI | Solid form after vacuum drying [3]: Form XVII

CN(C)c1cc(NC(=O)CNC(C)(C)C)c(O)c2c1C[C@H]1C[C@H]3[C@H](N(C)C)C(O)=C(C(N)=O)C(=O)[C@@]3(O)C(O)=C1C2=O [Form XVIII, Tigecycline]
Solid form by XRD after heating in oven [1, 6]: amorphous form | Solid form after vacuum drying [3]: Form XVIII

CN(C)c1cc(NC(=O)CNC(C)(C)C)c(O)c2c1C[C@H]1C[C@H]3[C@H](N(C)C)C(O)=C(C(N)=O)C(=O)[C@@]3(O)C(O)=C1C2=O [Form XXIV, Tigecycline]
Solid form by XRD after heating in oven ([1]; 110-140° C. for about 0.5-1 hr (e.g. 120 for 0.5 hr, 140° C. for 1 hr)): amorphous form

CN(C)c1cc(NC(=O)CNC(C)(C)C)c(O)c2c1C[C@H]1C[C@H]3[C@H](N(C)C)C(O)=C(C(N)=O)C(=O)[C@@]3(O)C(O)=C1C2=O [amorphous Tigecycline, Tigecycline]
Solid form by XRD after drying [3]: amorphous
